The values that follow come from patent US20250152528A1, “RAPID RELIEF SPRAY” (HALEON US HOLDINGS LLC, priority 2022, published 2025).

Counter-ions that a name gives are not always drawn.

Data set [1] in a line: Two weak acid combinations with lidocaine citrate: pH, precipitation and stability at 4° C. for 3 months. The settings on record: for colour of solution after change from clear: ambient conditions; for Observation: appearance of solution; for Time to Lidocaine Citrate Precipitation: kept at 4° C. for 3 months; for pH: lidocaine citrate solution (25 wt. % ethanol, 15 wt. % glycerin, 2.5 wt. % propylene glycol) with 2 wt. % acidifying agent.
Method: The pH was then measured, and stability was tested by keeping the resulting solutions at 4° C. for 3 months.

The conditions of data set [2]: cited from earlier work.
The conditions of data set [3]: 5 wt. % lidocaine free base in water with 24 wt. % isopropyl alcohol, 54 wt. % ethanol, or 10 wt. % isopropyl alcohol and 20 wt. % ethanol; pH 4.0 and 3.5 by excess citric acid.
The nature of data set [4]: Crystallization inhibitors and free base lidocaine crystallization in low pH solutions. The class given is physicochemical. As to conditions: 5.0 wt. % lidocaine free base, Example 1 composition; 0.5, 1.0, 2.0 wt. % Kollidon VA 64, PVP K-90, PVP K-25 or PVP K-30; pH=3.5 and pH=4 by excess citric acid; 24 samples.
The conditions of data set [5]: 5.0 wt. % lidocaine free base, 3.6 wt. % citric acid, 15 wt. % glycerin, 25 wt. % ethanol, water; pH adjusted between 4.5 to 3.5 with excess citric acid at 25° C.
For data set [6] the following is noted: has been observed; in aqueous solutions; cited from earlier work.
Setting [7] is: 2% acidifying agent, pH range of 4.2 to 3.3.

With `O=C(O)/C=C\C(=O)O` [Maleic acid], the “colour of solution after change from clear” value in data set [1] (2% acidifying agent) is recorded as “pale yellow solutions”. Also, the “prevention of lidocaine citrate precipitation” value (“prevention” below) in data set [1] (setting [7]) was “prevented lidocaine citrate precipitation”. In data set [1] (2 wt. % acidifying agent), the Observation result is recorded as “Oxidized” and the “Time to Lidocaine Citrate Precipitation” value is “Not observed”. For the same compound, the pH in data set [1] is on record as 3.32.

As to `CNC[C@H](O)c1cccc(O)c1` [phenylephrine HCl], in data set [2] (approximately), the “pH of solutions in which unstable” value is on record as > 4.

Consider `O=C(O)/C=C/C(=O)O` [Fumaric acid], for which the “colour of solution after change from clear” value in data set [1] (2% acidifying agent) is “pale yellow solutions”. In addition, in data set [1] (setting [7]), the “prevention” value is reported as “prevented lidocaine citrate precipitation”. In data set [1] (2 wt. % acidifying agent), the Observation entry was “Oxidized” and the “Time to Lidocaine Citrate Precipitation” value is given as “Not observed”. In data set [1], the pH stood at 3.72.

As to `CC(O)C(=O)O` (stereo not shown) [Lactic acid], in data set [1] (2 wt. % acidifying agent), the Observation entry is “Clear” and the “Time to Lidocaine Citrate Precipitation” value was “Not observed”. Besides, the pH in data set [1] is given as 4.05.

For `CC(=O)O` [Acetic Acid], in data set [1] (2 wt. % acidifying agent), the Observation entry was “Clear” and the “Time to Lidocaine Citrate Precipitation” value is “Not observed”. Moreover, the pH in data set [1] was determined as 4.00.

On to lidocaine citrate, for which the “crystallization in aqueous alcohol cosolvents” value in data set [3] is on record as “crystallized out of all samples as an opaque layer”. For the same compound, the “pH of lower pH solutions in which the salt crystallizes out” value (citrate salt generated in situ) is given as ≤ 4.5.

Take `O=C1O[C@H]([C@@H](O)CO)C(O)=C1O` [Ascorbic acid]: in data set [1] (5% acidifying agent), the “prevention” value was “prevented lidocaine citrate precipitation”, the “colour of solution after change from clear” value is “orange”, the Observation entry is “Oxidized” and the “Time to Lidocaine Citrate Precipitation” value is on record as “Not observed”.

With `CCN(CC)CC(=O)Nc1c(C)cccc1C` [lidocaine free base, lidocaine], the “lidocaine crystallization with crystallization inhibitors” value in data set [4] is “thick layer of lidocaine crystallization”. Besides, the “pH at which precipitation of lidocaine starts” value in data set [5] amounted to 4.0.

`O=C(O)CCC(=O)O` [Succinic acid]: in data set [1] (2 wt. % acidifying agent), the Observation result is reported as “Clear” and the “Time to Lidocaine Citrate Precipitation” value is “Not observed”. For the same compound, the pH in data set [1] was found to be 4.23.

On to lidocaine malate, for which, under “1:1 molar lidocaine free base and malic acid in water, excess malic acid to pH 3.6, several weeks at 4° C.”, the “crystallization at low pH on storage” value is “No lidocaine malate crystallization was observed”.

Consider `CNC[C@H](O)c1cccc(O)c1` [Phenylephrine], for which the “pH of solutions in which stable” value in data set [2] (background statement) was ≤ 4.0.

In the case of `O=C(O)[C@H](O)[C@@H](O)C(=O)O` [L-Tartaric acid], in data set [1] (2 wt. % acidifying agent), the Observation result is “Clear” and the “Time to Lidocaine Citrate Precipitation” value is on record as “Not observed”. The pH in data set [1] is on record as 3.71.

`O=C(O)CC(O)C(=O)O` (stereo not shown) [Malic Acid]: the “amount at which irritant to a healthy skin” value in data set [6] is given as ≥ 5 wt. %. In data set [1] (2 wt. % acidifying agent), the Observation entry is listed as “Clear” and the “Time to Lidocaine Citrate Precipitation” value is recorded as “Not observed”. In data set [1], the pH came to 3.93.

In the case of `O=C(O)CCCCC(=O)O` [Adipic Acid], in data set [1] (5% acidifying agent), the “prevention” value is given as “did not prevent precipitation”, the Observation result is listed as “Clear” and the “Time to Lidocaine Citrate Precipitation” value worked out at 2 weeks.
